The results in this text go back to patent US8329681B2, “Methods and compositions for the efficient delivery of therapeutic agents to cells and animals” (University of Massachusetts, priority 2005, dated 2012).

One data set has as its system HeLa cells. Briefly: Cell Titer 96 AQueous One Solution (MTS) cytotoxicity assay. As to conditions: liposomal formulation alone or in combination with DOPE and DOPC as co-lipid. The format is cell-based, human. As for the experimental part:
(§1) Alternatively, the cytotoxicity of the lipids was measured using the Cell Titer 96® AQueous One Solution Cell Proliferation Assay. The Cell Titer 96® AQueous One Solution Reagent contains a tetrazolium compound [3-(4,5-dimethylthiazol-2-yl)-5-(3-carboxymethoxyphenyl)-2(4-sulfophenyl)-2H-tetrazolium, inner salt; MTS^17] and an electron coupling reagent (phenazine ethosulfate; PES). The cytotoxicity assay was performed in 96 well plates by maintaining the ratio of number of cells to amount of cationic lipid constant as in transfection experiments. MTS was added 24 hours after transfection. Cell Titer 96® AQueous One Solution Reagent (20 ul) was pipetted into each well of the 96-well assay plate containing the samples in 100 μl of culture medium. In case of HeLa cells the plates were incubated for 2 hours, whereas for FL83B cells, plates were incubated for 4 hours at 37° C. in a humidified, 5% CO2 atmosphere. Absorbance was then recorded at 490 nm.
(§2) In a second experiment, FL83B and HeLa cells were plated on 96 well plate 18 hours prior to transfection. Then, liposome was added to each well and incubated for 24 hours. Thereafter, Cell Titer 96® AQueous One Solution Reagent was added and incubated for 4 hours. The MTS tetrazolium compound (Owen's reagent) is bioreduced by viable cells into a colored formazan product that is soluble in tissue culture […]. The absorbance of the formazan was measured at 490 nm with a 96 well plate reader.

Data set [1] concerns FL83B cells. Briefly: Transfection of pSV-β-gal plasmid, β-galactosidase reporter activity. The format is cell-based, rat. As for the experimental part: Cationic lipids and the co-lipids in chloroform were dried under a stream of N2 gas and vacuum-desiccated for a minimum of 6 h to remove residual organic solvent. The dried lipid film was hydrated in sterile deionized water at cationic lipid concentration of 1 mM for a minimum of 12 h. Liposomes were vortexed to remove any adhering lipid film and probe sonicated until a clear translucent solution is formed. The pDNA solution was added to the liposomes, mixed properly by pipeting and shaken on a rotary shaker (15-30 mins.) before use.
(§3) Cells were seeded at a density of 20,000 (for HeLa cells), 16,000 (for A-549 cells), 8,000 (for FL83B cells) per well in a 96-well plate 18-24 h before transfection. An amount of 0.30 μg of pDNA was complexed with varying amounts of lipids (to give +/− ratios of 0.3:1, 1:1, 3:1 and 9:1) in plain OPTIMEM (total volume made up to 100 μl) and then shaken on a rotary shaker at room temperature for 20-30 minutes. The complexes were then added to the cells. After 5 h of incubation, 200 μl of complete medium containing 10% FBS in DMEM for HeLa and 10% FBS in F-12K for FL83B and A549 was added to the cells. The medium was changed after 24 h and the reporter gene activity was estimated 48 h after transfection. Cells were washed with PBS (100 μl) and lysed in […] lysis buffer (5× reporter lysis buffer diluted to 1×, working concentration). The β-galactosidase activity per well was estimated by adding 50 μl of 2× substrate solution (1.33 mg/ml of ONPG, 0.2 M sodium phosphate, pH 7.15 and 2 mM magnesium chloride) to the lysate in a 96-well plate. Absorbance of the product ortho-nitrophenol was measured at 420 nm. The absorbance values reported are the average values from two replicate experiments performed in the same plate on the same day. Each transfection experiment was performed three times on three different days to control for variations in transfection efficiency.
Briefly, the efficacy of various lipid formulations were tested in three cell lines A-549, FL83B and HeLa cells and the transfection efficiencies of the cationic liposomal formulations were compared with a commercially available transfection reagent (e.g., Lipofectamine 2000).

Data set [2] in a line: Tissue distribution of Cy3-labeled siRNA by fluorescence microscopy. The format is in vivo, BALB/c mice. The note with it: 24 h after injection. As for the experimental part: Freshly excised tissues were frozen in liquid nitrogen and mounted for crytostat sectioning. Sections of 5 μm were fixed with in 100% acetone at 4° C. for 10 min, air-dried and mounted in Vectashild with DAPI (Vector Laboratories, Inc. Burlingame, Calif.). Slides were viewed and recorded under Leica confocal microscope.
Male BALB/c mice, 6-8 weeks of age and weighting 20-22 g, were purchased form the Jackson Laboratory (Bar Harbor, Me.). Synthetic siRNA were delivered in vivo using following method. For each mice 25 μg of siRNA in 100 μl of HEPES Buffered Saline (20 mM HEPES, 150 mM NaCl, pH 7.4) was transferred into a sterile tube. In a separate sterile tube 125 μg of liposome was mixed with 200 μl HEPES Buffered Saline. The siRNA solution was transferred to the tube containing liposome solution and then incubated at room temperature for 20 minutes. 200 μl of the complexes was injected via the tail vein, using a 1-ml syringe and 27-gauge needle. The injection was repeated 4 and 8 h later. Control mice were injected with an equal volume of liposome. At 24 h after the last injection, the mice were sacrificed and tissues were harvested for further analysis. […]
The tissue distribution patterns of siRNA delivered in BALB/c mice using DOTAP-Chol were assessed by fluorescence microscopy.

Data set [3] relates to FL83B cells. Briefly: Cell Titer 96 AQueous One Solution (MTS) cytotoxicity assay. The format is cell-based, rat. The note with it: liposomal formulation alone or in combination with DOPE and DOPC as co-lipid. As for the experimental part:
as §1, §2

Data set [4] concerns A-549, FL83B and HeLa cells. Briefly: Transfection of pSV-β-gal plasmid, overall statement without cell line. The format is cell-based. As to conditions: alone without any co-lipids. As to the method:
as §3, with “efficiency. […]” for “efficiency.”

Each structure is given as a SMILES string.

In the case of `CCCCCCCCC=CCCCCCCCC(=O)OC(COC(=O)CCC(=O)OC1CCC2(C)C(=CCC3C2CCC2(C)C(C(C)CCCC(C)C)CCC32)C1)C[N+](C)(C)C.[I-]` (stereo not shown) [Lipid 8, N,N,N-Trimethyl-N-[2-(9(Z)-octadecanoyloxy),3-succinyloxy(4-cholesteryloxy)-propyl]ammonium iodide], the “cytotoxicity as compared to a control” value in the data set with HeLa cells and with FL83B cells [3] was “non-toxic” each time. Moreover, the “transfection efficiency compared with Lipofectamine 2000” value in the data set with FL83B cells [1] (alone, lipid:DNA charge ratios 1:1 and 0.3:1) is “one fold less”; with FL83B cells [1] (in combination with DOPC, charge ratio 9.0:1.0 to 0.3:1.0) it was “about two fold less”. For the same molecule, the “transfection efficiency, fold less than Lipofectamine 2000” value in the data set on FL83B cells [1] (in combination with DOPE, charge ratio 3:1) is “more than 1.5 fold”. Moreover, in data set [2], the “tissues with the highest fluorescent intensity of delivered Cy3-labeled siRNA” value is “the spleen, the lung and the liver”. In data set [4], the “transfection efficiency of lipid alone compared with lipid in combination with DOPE and DOPC” value is “about as efficient”.
